Results on two compounds are retold here after article PMC5310922, “A high-throughput phenotypic screen identifies clofazimine as a potential treatment for cryptosporidiosis” (PLoS Neglected Tropical Diseases, 2017).

The EC50 is the midpoint of the concentration-response curve.

Each structure is given as a SMILES string. Like-named read-outs stand apart in the source and are kept apart here. Bounds are passed on as bounds.

A short description of data set [1]: Pharmacokinetic study in mice (plasma, feces, urine). The note with it: 20 mg/kg oral; for fecal excretion (unchanged), first 24 h: mean ± SEM; for peak plasma concentration: mean ± SEM n=3.
On the set-up of data set [2]: method as in PMID 2656045. As to conditions: cited from earlier work.
For data set [3], the system named is C. parvum. The experiment in a line: Host cell 3-h pre-treatment, with or without wash, then C. parvum infection. Format: cell-based, Cryptosporidium parvum. As to conditions: for EC50: Cryptosporidium parvum, host cells pretreated 3 h, C. parvum, 48 hpi. The method, then:
A set of parallel wells were also treated and not washed prior to infection. 48 hpi, infected cells were imaged as described above, and EC50s for each compound pre- and post-wash were determined.

Data set [4] deals with Cryptosporidium hominis (TU502). The experiment in a line: C. hominis proliferation in HCT-8 cells, 48 h high-content imaging assay. As to conditions: Cryptosporidium hominis. Format: cell-based. The procedure:
Methods for continuous, in vitro cultivation of Cryptosporidium spp. have not been well established. Instead, in vivo oocyst propagation of C. parvum is performed in calves, a more promiscuous Cryptosporidium species for animal and human infections. For C. hominis, gnotobiotic piglets are the primary means of propagation. The calf is the more accessible model, making C. parvum the more convenient species to screen. However, C. hominis is equally clinically relevant with regards to human cryptosporidiosis. […] High purity powders of the 10 filtered C. parvum Bioactives screen hits and both GHCDL screen hits were tested against C. hominis (TU502) to confirm activity against both species.
Cells were then plated (5 μL/well) into 1536-well assay plates at a density of 5.5×10^5 cells/mL (2,750 cells/well).
C. parvum oocysts (Iowa strain, isolated from infected calves) were purchased from the Sterling Parasitology Laboratory, University of Arizona, and stored at 4°C for ≤ 3 months in an antibiotic solution (0.01% Tween 20 containing 100 U/mL penicillin and 100 μg/mL gentamicin). C. hominis oocysts (TU502, isolated from gnotobiotic piglets) were purchased from the Tzipori Laboratory, Cummings School of Veterinary Medicine, Tufts University, and stored at 4°C for ≤ 2 weeks in an antibiotic solution (100 U/mL penicillin and 100 μg/mL streptomycin). For infection of assay plates, 24 h after cell seeding, oocysts were excysted and prepared for inoculation as previously described. Briefly, the oocysts were diluted into 1 mL pre-warmed 10 mM HCl and then incubated in a 37°C water bath for 10 min. Oocysts were then pelleted at 3,000×g for 1 min in a microcentrifuge (Thermo), and the supernatant was carefully aspirated. Oocysts were resuspended in 2 mM sodium taurocholate in DPBS++ (with 0.9 mM CaCl2 and 0.5 mM MgCl2) and incubated at room temperature for 20 min. After incubation in bile salts, the oocysts were diluted 1:100 and free sporozoites and intact oocysts were enumerated to determine the percentage of excystation.
Plates were then washed twice with phosphate buffered saline (PBS). […] To prevent non-specific binding, the cells were blocked with SuperBlock™ T20 blocking agent (Thermo) for 1 h at room temperature. Cryptosporidium parasites were stained with 1 μg/mL fluorescein isothiocyanate (FITC)-conjugated Vicia villosa lectin (Vector Laboratories) in 1:10 diluted SuperBlock™ in PBS-T, supplemented with 3 μM 4',6-diamidino-2-phenylindole (DAPI) to visualize host cell nuclei. Staining was for 1 h at room temperature in the dark. Finally, cells were washed twice with PBS-T and the plates were sealed with adhesive foil. The plates were imaged with a CellInsight CX5 High Content Screening Platform (Thermo) with a 10× objective. […] The software identified primary objects (HCT-8 host cells) and spots within allowed distances to the nuclei (Cryptosporidium). Both cytotoxicity against HCT-8 cells (number of nuclei relative to DMSO-treated controls) and Cryptosporidium inhibition (spot counts relative to DMSO-treated controls) were assessed.
Images were processed by the HCS Studio Scan software, and Selected Object Count (HCT-8 cells) and Spot Count (Cryptosporidium) were analyzed in Genedata Screener (v13.0-Standard). Spot Count and Selected Object Count were normalized to neutral controls minus inhibitors (floxuridine for Spot Count, and puromycin for Selected Object Count).

Data set [5] has as its system C. parvum. Briefly: Washout assay: 3-h treatments over the asexual life cycle of C. parvum. As to conditions: 3-h treatment then washout; even at 3×EC99.
Experimental: We examined short, three-hour compound treatments of in vitro cultures, followed by compound washout, that covered the complete asexual life cycle, believed to be 13–15 h post invasion [36]. […] The treatment interval lasted 3 h before washout with fresh medium; infected cells were allowed to grow until 48 h post infection before fixation. […] As CFZ is very lipophilic, we sought to determine whether intracellular accumulation was affecting the strong inhibition across each time point.
Infected cells were treated in six 3-h increments over the course of 15 h (the presumed in vitro asexual lifecycle of C. parvum). HCT-8 cells were seeded (25 μL/well) into clear-bottomed 384-well plates (Greiner) at a density of 6.0×10^5 cells/mL (15,000 cells/well) in assay medium, and allowed to grow 24 h at 37°C with 5% CO2 in a humidified tissue culture incubator, covered with a custom metal lid (The Genomics Institute of the Novartis Research Foundation) to reduce evaporation. After 24 h, and 2 h before infecting with C. parvum oocysts (time -2 hpi), the treatment time course was initiated. […] DMSO was used as a negative control. Cell medium was removed from designated wells and replaced with medium containing either compound or DMSO. […] Plates were then spun at 150×g for 3 min, and kept at 37°C with 5% CO2 in a humidified tissue culture incubator during drug treatment intervals. At the end of each 3 h time point, infected cells were carefully washed three times with fresh, pre-warmed assay medium, and the next set of wells for the subsequent time point were treated. The final time point extended to 18 h, to cover re-invasion of merozoites into new HCT-8 cells. After the final compound treatment was washed off, infected cells were allowed to grow until 48 h post infection.
Data set [6] has as its system Cryptosporidium. Further details: method as in PMID 23878324. As to conditions: once per day for ten consecutive days at 100 mg/kg; cited from earlier work.
Where [7] appears, read: in HCT-8 cells, 48 h, value (SD; n), read-out: C. hominis 48H Assay EC50 [µM] (SD; n).
Where [8] appears, read: 7% Tween 80, 3% ethanol, 90% water.

With `CC(C)/N=c1\cc2n(-c3ccc(Cl)cc3)c3ccccc3nc-2cc1Nc1ccc(Cl)cc1` [Clofazimine], the “dosage excreted in the urine, first 48 h” value in data set [1] was under 0.15%. The “time plasma concentrations remained stable after the initial maximal concentration” value in data set [1] is “at least 20 hours”. For the same compound, the “fecal excretion (unchanged), first 24 h” value in data set [1] (MC-Tween) was 25.7% ± 13.3%; in data set [1] (corn oil), 14.8% ± 3.1%. Moreover, the peak plasma concentration amounted to 288 ± 2 ng/mL in data set [1] (MC-Tween, within first 24 h) and 445 ± 61 ng/mL in data set [1] (corn oil, within first 24 h). For the same compound, the “mean fecal excretion, next 48 h” value in data set [1] (either formulation) is listed as under 2%. The drug half-life in data set [2] is listed as ~ 70 days. In addition, the concentration giving a half-maximal response (EC50) came to 7 nM in data set [3] (read-out: Post-wash EC50); 23 nM in data set [3] (read-out: Pre-wash EC50); 0.34 µM in data set [4] (HCT-8, same in vitro host cell line, read-out: EC50 against C. hominis); 0.341 µM in data set [4] (setting [7]). Further, the “inhibition of C. parvum proliferation after compound removal by repeated washes” value in data set [3] (host cell pre-treatment, dose-response) is given as “near equipotent inhibition”.
In the case of `CCOc1ccc2cc(-c3nn(CC4CCN(C)CC4)c4ncnc(N)c34)ccc2c1` [BKI-1294], in data set [1], the “dosage excreted in the urine, first 48 h” value was found to be 1.6%. For the same compound, in data set [1], the “plasma concentration dropped to, within first 24 h post dosing” value came out at 6.7 ± 0.3 ng/mL. The “fecal excretion (unchanged), first 24 h” value in data set [1] (setting [8]) was 8.9% ± 0.5%. In data set [1] (setting [8]), this compound yielded a peak plasma concentration of 1282 ± 154 ng/mL. In addition, the EC50 in data set [3] (read-out: Post-wash EC50) is 955 nM; in data set [3] (read-out: Pre-wash EC50), over 12500 nM; in data set [4] (setting [7]), 0.457 µM. Moreover, the “inhibition of parasite growth at all time points other than 10–13 h post infection” value in data set [5] is under 60%. Also, the “efficacy in mouse model of chronic cryptosporidiosis” value in data set [6] is on record as “demonstrated efficacy”.
